Laboratory results published in patent publication US9480251B2, “Insecticidal compositions and method for insect control” (FMC Corporation, priority 2010, dated 2016).

Columns and labels:
Type in all cases: in vivo
[1] = tested on: Lasius ant (Lasius niger); assay: Direct spray contact toxicity, Lasius ant; details: ten insects on asphalt slab, directly sprayed for 2 seconds
Protocol: (§1) Formulations of geraniol, cedar oil and mixtures thereof were evaluated for contact toxicity against the Lasius ant (Lasius niger), lady beetle (Harmonia axyridis), brown stink bug (Halyomorpha halys), green peach aphid (Myzus persicae), house cricket (Acheta domesticus) and […] bug (Pseudococcus longispinus). […] Each test solution was poured into a 16 ounce spray can, a valve was installed and the can was charged with carbon dioxide as the propellant. Direct spraying of the test substance onto insects was performed to determine the efficacy of each test solution as follows: Lasius ant and lady beetle test-In separate tests, ten insects of each species were placed onto an asphalt slab and directly sprayed for 2 seconds with the appropriate test solutions.

[2] = tested on: lady beetle (Harmonia axyridis); assay: Direct spray contact toxicity, lady beetle; details: ten insects on asphalt slab, directly sprayed for 2 seconds
Protocol: as §1

[3] = tested on: brown stink bug (Halyomorpha halys); assay: Direct spray contact toxicity, brown stink bug; details: ten insects on concrete slab, directly sprayed for 2 seconds
Protocol: as §1, with “follows: Brown stink bug” for “follows: Lasius ant”, “and house cricket” for “and lady beetle”, “onto a concrete” for “onto an asphalt”

[4] = tested on: green peach aphid (Myzus persicae); assay: Spray to runoff of infested bell pepper plant, green peach aphid; details: infested bell pepper plant sprayed until runoff
Protocol: as §1, with “Green peach aphid” for “Lasius ant and lady beetle”, “a bell pepper plant, infested with green peach aphids, was” for “ten insects of each species were placed onto an asphalt slab and directly”, “sprayed” for “sprayed for 2 seconds”, “solution until runoff.” for “solutions.”

[5] = tested on: house cricket (Acheta domesticus); assay: Direct spray contact toxicity, house cricket; details: ten insects on concrete slab, directly sprayed for 2 seconds
Protocol: as §1, with “follows: Brown stink bug” for “follows: Lasius ant”, “and house cricket” for “and lady beetle”, “onto a concrete” for “onto an asphalt”

[6] = tested on: longtail mealy bug (Pseudococcus longispinus); assay: Spray to runoff of infested Euonymus leaves, longtail mealy bug; details: ten bugs on variegated Euonymus leaves sprayed until runoff, assessed after 24 hours
Protocol: Formulations of geraniol, cedar oil and mixtures thereof were evaluated for contact toxicity against the Lasius ant (Lasius niger), lady beetle (Harmonia axyridis), brown stink bug (Halyomorpha halys), green peach aphid (Myzus persicae), house cricket (Acheta domesticus) and longtail mealy bug (Pseudococcus longispinus). The plant oil test solutions were prepared by dissolving the appropriate amount of the plant oil(s) in deionized water containing 0.5% by weight sodium laureth sulfate, for example 4.4 grams of geraniol was dissolved in 1 liter of deioinized water containing 5 grams of sodium laureth sulfate to prepare a 0.44% test solution of geraniol. Each test solution was poured into a 16 ounce spray can, a valve was installed and the can was charged with carbon dioxide as the propellant. Direct spraying of the test substance onto insects was performed to determine the efficacy of each test solution as follows:
Longtail mealy bug test—In separate tests, ten longtail mealy bugs were established on several leaves of a variegated Euonymus plant, the infested leaves were sprayed with the appropriate test solution until runoff.

## CC(C)=CCC/C(C)=C/CO [0.44% geraniol, trans-3,7-dimethyl-2,6-octadien-1-ol]
[1]
  Recovery from knockdown: None
  Time to 100% Knockdown: 9 s
  Time to 100% mortality: 20 s
[2]
  Recovery from knockdown: None
  Time to 100% Knockdown: 20 s
  Time to 100% mortality: 60 s
[3]
  Recovery from knockdown: None
  Time to 100% Knockdown: 20 s
  Time to 100% mortality: 90 s
[4]
  Recovery from knockdown: None
  Time to 100% Knockdown: No apparent
  Time to 100% mortality: 3 h
[5]
  Recovery from knockdown: None
  Time to 100% Knockdown: 60 s
  Time to 100% mortality: 3 h
[6]
  mortality at 24 hours: 50% mortality at
